Assay results published in patent US5578608A, “Symmetrical diaryl and diheteroanyl cis epoxy alkanes antiviral compounds” (Eli Lilly and Company, priority 1995, dated 1996).
Like-named read-outs stand apart in the source and are kept apart here.

Target: T1, HIV-1 protease (Human immunodeficiency virus type 1 group M subtype B, UniProt P04585)
T1 construct: made in house; host or cells: E. coli K12 L507/pHP10D (NRRL B-18560)
Experiment: biochemical
Conditions: for inhibition at 1 µg/mL: at 1000 ng/ml, read-out: Fluorescence Assay, given as ICxx (1000): xx is the percent inhibition
Procedure: A culture of E. coli K12 L507/pHP10D was grown to mid-log phase at 32° C. in LB media containing 12.5 μg/ml tetracycline. The cultivation temperature was quickly elevated to 40° C. to induce gene expression, and the cells were allowed to grow for 2.5 hours at this temperature before the culture was quickly chilled on ice. The cells were centrifuged and the cell pellet was resuspended in 20 mL 50 mmol MES buffer (pH 6.0) containing 1 mmol EDTA, 1 mmol DTT, 1 mmol PMSF and 10% glycerol ("Buffer A"). Cells were lysed by sonication using a Fischer Model 300 Dismembrator and a microtip probe. Following centrifugation at 27,000 x g, the supernatant was diluted to a total volume of 60 mL with Buffer A and loaded onto a 2.0×19 cm QAE-Sepharose column (1 mL/min, 4° C.), that had been equilibrated in Buffer A. The column was washed isocratically for 180 min and then eluted with a gradient eluent of 0-1.0M NaCl in Buffer A over 120 min. Enzymatic activity was measured by HPLC using the synthetic peptide SQNYPIV as described in Margolin et al., Biochem. Biophys. Res. Commun., […], 554-560 (1990); the production of the p1 peptide (SQNY) was measured.
N^a -Biotin-[…]N^e -FITC)-OH SEQ ID NO: 1
The following buffers and solutions are used in the Fluorescence HIV-1 Protease Inhibitor Assay:
To each well of a round bottom, 96-well plate is added 20 μL of the Enzyme Solution followed by 10 μL of the compound to be evaluated in a 20% aqueous dimethylsulfoxide solution. Purified HIV-1 protease was obtained as described above. The resulting solution is incubated for one hour at room temperature and then 20 μL of a solution containing the substrate, N^a -Biotin-[…]N^e-FITC)-OH, in MES-ALB buffer ([…]) is added to each well. The solutions are then incubated for 16 hours at room temperature and then each well is diluted with 150 μL of MES-ALB buffer.
To each well of a second round bottom, 96-well Pandex plate is added 25 uL of the Avidin Coated Beads Solution. Then, to each well is added 25 μL of the diluted incubation solutions, prepared above. The solutions are mixed thoroughly and the plates are loaded into a Pandex® machine, washed, evacuated and read. Sample detection was performed by excitation at 485 nm, reading the resulting epifluorescence at 535 nm.

[1] = read-out: Fluorescence Assay IC50 (converted)

C[C@H](NC(=O)OCc1ccccc1)C(=O)N[C@@H](Cc1ccccc1)[C@@H]1O[C@@H]1[C@H](Cc1ccccc1)NC(=O)[C@H](C)NC(=O)OCc1ccccc1 [Example 20, 1,6-Diphenyl-2(S),5(S)-di[N-[2(S)-N(benzyloxycarbonyl)amino]propanoyl]amino-3,4-cis-epoxyhexane]
IC50 [1]: 0.803 µM

CC[C@H](NC(=O)OCc1ccc2ccccc2n1)C(=O)N[C@@H](Cc1ccccc1)[C@@H]1O[C@@H]1[C@H](Cc1ccccc1)NC(=O)[C@H](CC)NC(=O)OCc1ccc2ccccc2n1 [Example 10, 1,6-Diphenyl-2(S),5(S)-di[N-[2(S)-N[(quinolin-2-ylmethoxy)carbonyl]aminobutanoyl]amino]-3,4-cis-epoxyhexane]
IC50 [1]: 0.00219 µM

CSC[C@@H](NC(=O)OCc1ccccc1)C(=O)N[C@@H](Cc1ccccc1)[C@@H]1O[C@@H]1[C@H](Cc1ccccc1)NC(=O)[C@@H](CSC)NC(=O)OCc1ccccc1 [Example 11, 1,6-Diphenyl-2(S),5(S)-di[N-[2(S)-N(benzyloxycarbonyl)amino-3-methylthiopropanoyl]amino]-3,4-cis-epoxyhexane]
IC50 (* average IC50, 16 h incubation at room temperature, MES-ALB buffer pH 5.5, normalized to a positive control, read-out: Fluorescence Assay average IC50 (marked *) (converted)): 0.248 µM

N#CC[C@H](NC(=O)OCc1ccccc1)C(=O)N[C@@H](Cc1ccccc1)[C@@H]1O[C@@H]1[C@H](Cc1ccccc1)NC(=O)[C@H](CC#N)NC(=O)OCc1ccccc1 [Example 6, 1,6-Diphenyl-2(S),5(S)-di[N-[2(S)-N(benzyloxycarbonyl)amino-3-cyanopropanoyl]amino]-3,4-cis-epoxyhexane]
IC50 [1]: 0.88 µM

CC[C@H](C)[C@H](NC(=O)OCc1ccc2ccccc2n1)C(=O)N[C@@H](Cc1ccccc1)[C@@H]1O[C@@H]1[C@H](Cc1ccccc1)NC(=O)[C@@H](NC(=O)OCc1ccc2ccccc2n1)[C@@H](C)CC [Example 15, 1,6-Diphenyl-2(S),5(S)-di[N-[2(S)-N[(quinolin-2-ylmethoxy)carbonyl]amino-3(S)-methylpentanoyl]amino]-3,4-cis-epoxyhexane]
IC50 [1]: 0.0273 µM

CC[C@H](NC(=O)N(C)Cc1ccc2ccccc2n1)C(=O)N[C@@H](Cc1ccccc1)[C@@H]1O[C@@H]1[C@H](Cc1ccccc1)NC(=O)[C@H](CC)NC(=O)N(C)Cc1ccc2ccccc2n1 [Example 18, 1,6-Diphenyl-2(S),5(S)-di[N-[2(S)-N-[[N(methyl)-N(quinolin-2-ylmethyl)amino]carbonyl]aminobutanoyl]amino]-3,4-cis-epoxyhexane]
IC50 (read-out: Fluorescence Assay average IC50 (marked *) (converted)): 0.00836 µM

CC[C@H](NC(=O)N(C)Cc1ccccn1)C(=O)N[C@@H](Cc1ccccc1)[C@@H]1O[C@@H]1[C@H](Cc1ccccc1)NC(=O)[C@H](CC)NC(=O)N(C)Cc1ccccn1 [Example 28, 1,6-Diphenyl-2(S),5(S)-di[N-[2(S)-N[[N(methyl)-N(pyrid-2-ylmethyl)amino]carbonyl]aminobutanoyl]amino]-3,4-cis-epoxyhexane]
IC50 [1]: 1.09 µM

CC(C)C[C@H](NC(=O)OCc1ccccn1)C(=O)N[C@@H](Cc1ccccc1)[C@@H]1O[C@@H]1[C@H](Cc1ccccc1)NC(=O)[C@H](CC(C)C)NC(=O)OCc1ccccn1 [Example 13, 1,6-Diphenyl-2(S),5(S)-di[N-[2(S)-N(pyrid-2-ylmethoxycarbonyl)amino-4-methylpentanoyl]amino]-3,4-cis-epoxyhexane]
IC50 [1]: 2.88 µM

CN(Cc1ccc2ccccc2n1)C(=O)N[C@@H](CC#N)C(=O)N[C@@H](Cc1ccccc1)[C@@H]1O[C@@H]1[C@H](Cc1ccccc1)NC(=O)[C@H](CC#N)NC(=O)N(C)Cc1ccc2ccccc2n1 [Example 27, 1,6-Diphenyl-2(S),5(S)-di [N-[2(S)-N[[N(methyl)-N(quinolin-2-ylmethyl)amino]carbonyl]amino-3-cyanopropanoyl]amino]-3,4-cis-epoxyhexane]
IC50 [1]: 0.0307 µM

CC[C@H](NC(=O)OCc1ccccc1)C(=O)N[C@@H](Cc1ccccc1)[C@@H]1O[C@@H]1[C@H](Cc1ccccc1)NC(=O)[C@H](CC)NC(=O)OCc1ccccc1 [Example 2, 1,6-Diphenyl-2(S),5(S)-di[N-[2(S)-N(benzyloxycarbonyl)aminobutanoyl]amino]-3,4-cis-epoxyhexane]
IC50 [1]: 0.0144 µM

CCC(NC(=O)N(C)Cc1ccccn1)C(=O)NC(CSc1ccc2ccccc2c1)C1OC1C(CSc1ccc2ccccc2c1)NC(=O)C(CC)NC(=O)N(C)Cc1ccccn1 [Example 35, 1,6-Dinaphth-2-ylthio-2(S),5(S)-di[N-[2(S)-N-[[N(methyl)-N (pyrid-2-ylmethyl)amino]carbonyl]aminobutanoyl]amino]-3,4-cis-epoxyhexane]
inhibition at 1 µg/mL: 23%

CC[C@H](NC(=O)N(C)Cc1ccccn1)C(=O)N[C@@H](CCCc1ccccc1)[C@@H]1O[C@@H]1[C@H](CCCc1ccccc1)NC(=O)[C@H](CC)NC(=O)N(C)Cc1ccccn1 [Example 37, 1,10-Diphenyl-4(S),7(S)-di[N-[2(S)-N-[[N(methyl)-N(pyrid-2-ylmethyl)amino]carbonyl]aminobutanoyl]amino]-5,6-cis-epoxydecane]
IC50 [1]: 0.206 µM

CC(C)[C@H](NC(=O)c1ccc2ccccc2n1)C(=O)N[C@@H](Cc1ccccc1)[C@@H]1O[C@@H]1[C@H](Cc1ccccc1)NC(=O)[C@@H](NC(=O)c1ccc2ccccc2n1)C(C)C [Example 26, 1,6-Diphenyl-2(S),5(S)-di[N-[2(S)-N(quinolin-2-ylcarbonyl)amino-3-methylbutanoyl]amino]-3,4-cis-epoxyhexane]
inhibition at 1 µg/mL: 23%

NC(=O)CC[C@H](NC(=O)OCc1ccccc1)C(=O)N[C@@H](Cc1ccccc1)[C@@H]1O[C@@H]1[C@H](Cc1ccccc1)NC(=O)[C@H](CCC(N)=O)NC(=O)OCc1ccccc1 [Example 12, 1,6-Diphenyl-2(S),5(S)-di[N-[2(S)-N(benzyloxycarbonyl)amino-4-carbamoylbutanoyl]amino]-3,4-cis-epoxyhexane]
IC50 [1]: 1.73 µM

CC(C)(C)C(NC(=O)OCc1cccnc1)C(=O)NC(Cc1ccccc1)C1OC1C(Cc1ccccc1)NC(=O)C(NC(=O)OCc1cccnc1)C(C)(C)C [Example 23, 1,6-Diphenyl-2(S),5(S)-di[N-[2(S)-N(pyrid-3-ylmethoxycarbonyl)amino-3,3-dimethylbutanoyl]amino]-3,4-cis-epoxyhexane]
Fluorescence Assay IC50 (16 h incubation at room temperature, MES-ALB buffer pH 5.5, normalized to a positive control): 0.497 mg/L

CCCC[C@H](NC(=O)N(C)Cc1ccc2ccccc2n1)C(=O)N[C@@H](Cc1ccccc1)[C@@H]1O[C@@H]1[C@H](Cc1ccccc1)NC(=O)[C@H](CCCC)NC(=O)N(C)Cc1ccc2ccccc2n1 [Example 22, 1,6-Diphenyl-2(S),5(S)-di[N-[2(S)-N[[N(methyl)-N(quinolin-2-ylmethyl)amino]carbonyl]aminohexanoyl]amino]-3,4-cis-epoxyhexane]
IC50 [1]: 0.437 µM

CC(C)[C@H](NC(=O)OCc1ccccn1)C(=O)N[C@@H](CCc1ccccc1)[C@@H]1O[C@@H]1[C@H](CCc1ccccc1)NC(=O)[C@@H](NC(=O)OCc1ccccn1)C(C)C [Example 36]
inhibition at 1 µg/mL: 26%

CC[C@H](C)[C@H](NC(=O)N(C)Cc1ccccn1)C(=O)N[C@@H](Cc1ccc2ccccc2c1)[C@@H]1O[C@@H]1[C@H](Cc1ccc2ccccc2c1)NC(=O)[C@@H](NC(=O)N(C)Cc1ccccn1)[C@@H](C)CC [Example 33, 1,6-Dinaphth-2-yl-2(S),5(S)-di[N-[2(S)-N-[[N(methyl)-N(pyrid-2-ylmethyl)amino]carbonyl]amino-3(S)-methylpentanoyl]amino]-3,4-cis-epoxyhexane]
inhibition at 1 µg/mL: 25%
